{
  "source": "patent US4282244A",
  "about": "“Optical isomers of 4-amino-N-(1-cyclohexyl-3-pyrrolidinyl)-N-methylbenzamide” (A. H. Robins Company, Inc., priority 1980, dated 1981)",
  "key": {"[1]": {"tested_on": "Metoclopramide-Induced Catalepsy", "experiment": "Effects on Metoclopramide-Induced Catalepsy", "format": "in vivo, rat", "conditions": "Metoclopramide 40 mg/kg IP, then saline IP after one hour", "protocol": "(§1) (+)-4-Amino-N-(1-cyclohexyl-3-pyrrolidinyl)-N-methylbenzamide is useful in reducing the cataleptic side effects of known therapeutically effective drugs such as chlorpromazine [2-chloro-10-(3-dimethylaminopropyl)phenothiazine] and metoclopramide (N-diethylaminoethyl 2-methoxy-4-amino-5-chlorophenylcarboxamide). The effectiveness is shown in Tables IV and V. In each test the rat was administered a 100% effective cataleptic dose of the test drug followed one hour later by an effective dose of (+)-4-amino-N-(1-cyclohexyl-3-pyrrolidinyl)-N-methylbenzamide."}, "[2]": {"experiment": "cataleptic effects (Tedeschi et al.)", "format": "in vivo, rat", "conditions": "in vivo, rat, expressed as free base; for TD50: footnote c, read-out: Neurotoxic dose level evidenced by seizures in test animals; for NOAEL: fumarate salt", "description": "(§2) The procedure used for determing cataleptic effects of the fumarate salts was based on that of Tedeschi et al., Arch. Int. Pharmacodyn."}, "[3]": {"tested_on": "catalepsy", "experiment": "cataleptic effects (Tedeschi et al.)", "format": "in vivo, rat", "description": "as §2"}, "[4]": {"experiment": "acute toxicity (LD50), rat", "format": "in vivo", "conditions": "in vivo, fumarate salt, expressed as free base, read-out: LD50 (95% Confidence Limits)", "protocol": "(§3) The acute toxicities of the ±-racemate, the (+)-isomer and the (-)-isomer were conducted with the fumarate salts and probit analysis (Finney, D. J., Statistical Methods in Biological Assay, Hafner Pub. Co., N.Y., 2nd. Ed., 1964) was employed for the statistical treatment of the mortality data."}, "[5]": {"experiment": "acute toxicity (LD50), mouse", "format": "in vivo", "conditions": "in vivo, fumarate salt, expressed as free base, read-out: LD50 (95% Confidence Limits)", "protocol": "as §3"}, "[6]": {"tested_on": "Chlorpromazine-Induced Catalepsy", "experiment": "Effects on Chlorpromazine-Induced Catalepsy", "format": "in vivo, rat", "conditions": "Chlorpromazine 4 mg/kg IP, then saline IP after one hour", "protocol": "as §1"}},
  "note": "Where a name gives a salt, the structure may show the parent alone.",
  "data": [
    {"smiles": "CCN(CC)CCNC(=O)c1cc(Cl)c(N)cc1OC", "note": "[Metoclopramide, N-diethylaminoethyl 2-methoxy-4-amino-5-chlorophenylcarboxamide, reference compound]", "values": [
      {"measurement": "Percent of Rats Cataleptic", "setting": "[1]; 0.5 h after initial treatment", "value": 100, "unit": "%"},
      {"measurement": "Percent of Rats Cataleptic", "setting": "[1]; 1.0 h after initial treatment", "value": 100, "unit": "%"},
      {"measurement": "Percent of Rats Cataleptic", "setting": "[1]; 1.5 h after initial treatment", "value": 100, "unit": "%"},
      {"measurement": "Percent of Rats Cataleptic", "setting": "[1]; 2.0 h after initial treatment", "value": 100, "unit": "%"},
      {"measurement": "Percent of Rats Cataleptic", "setting": "[1]; 3.0 h after initial treatment", "value": 100, "unit": "%"},
      {"measurement": "Percent of Rats Cataleptic", "setting": "[1]; 4.0 h after initial treatment", "value": 100, "unit": "%"},
      {"measurement": "Percent of Rats Cataleptic", "setting": "[1]; 5.0 h after initial treatment", "value": 100, "unit": "%"},
      {"measurement": "Percent of Rats Cataleptic", "setting": "[1]; 6.0 h after initial treatment", "value": 100, "unit": "%"}
    ]},
    {"smiles": "CN(C(=O)c1ccc(N)cc1)C1CCN(C2CCCCC2)C1", "note": "(racemic) [± racemate, 4-amino-N-(1-cyclohexyl-3-pyrrolidinyl)-N-methylbenzamide]", "values": [
      {"measurement": "TD50", "setting": "[2]; IP", "value": 100, "unit": "mg/kg"},
      {"measurement": "NOAEL", "setting": "[2]; IP", "value": 100, "unit": "mg/kg"},
      {"measurement": "NOAEL", "setting": "[2]; PO", "value": 200, "unit": "mg/kg"},
      {"measurement": "cataleptic properties", "setting": "[3]", "value": "notable absence of cataleptic properties"},
      {"measurement": "LD50", "setting": "[4]; ip, I.P.", "value": 111, "unit": "mg/kg"},
      {"measurement": "LD50", "setting": "[4]; po, P.O.", "value": 305, "unit": "mg/kg"},
      {"measurement": "LD50", "setting": "[5]; ip, I.P.", "value": 90.2, "unit": "mg/kg"},
      {"measurement": "LD50", "setting": "[5]; po, P.O.", "value": 181, "unit": "mg/kg"}
    ]},
    {"smiles": "CN(C(=O)c1ccc(N)cc1)C1CCN(C2CCCCC2)C1", "note": "(single isomer, unassigned; (-)) [(-)-isomer, (-)-4-Amino-N-(1-cyclohexyl-3-pyrrolidinyl)-N-methyl benzamide Fumarate]", "values": [
      {"measurement": "TD50", "setting": "[2]; IP", "value": 100, "unit": "mg/kg"},
      {"measurement": "LD50", "setting": "[4]; ip, I.P.", "value": 116, "unit": "mg/kg"},
      {"measurement": "LD50", "setting": "[4]; po, P.O.", "value": 410, "unit": "mg/kg"},
      {"measurement": "LD50", "setting": "[5]; ip, I.P.", "value": 103, "unit": "mg/kg"},
      {"measurement": "LD50", "setting": "[5]; po, P.O.", "value": 241, "unit": "mg/kg"}
    ]},
    {"smiles": "CN(C)CCCN1c2ccccc2Sc2ccc(Cl)cc21", "note": "[Chlorpromazine, 2-chloro-10-(3-dimethylaminopropyl)phenothiazine, reference compound]", "values": [
      {"measurement": "Percent of Rats Cataleptic", "setting": "[6]; 0.5 h after initial treatment", "value": 100, "unit": "%"},
      {"measurement": "Percent of Rats Cataleptic", "setting": "[6]; 1.0 h after initial treatment", "value": 100, "unit": "%"},
      {"measurement": "Percent of Rats Cataleptic", "setting": "[6]; 1.5 h after initial treatment", "value": 100, "unit": "%"},
      {"measurement": "Percent of Rats Cataleptic", "setting": "[6]; 2.0 h after initial treatment", "value": 100, "unit": "%"},
      {"measurement": "Percent of Rats Cataleptic", "setting": "[6]; 3.0 h after initial treatment", "value": 100, "unit": "%"},
      {"measurement": "Percent of Rats Cataleptic", "setting": "[6]; 4.0 h after initial treatment", "value": 100, "unit": "%"},
      {"measurement": "Percent of Rats Cataleptic", "setting": "[6]; 5.0 h after initial treatment", "value": 100, "unit": "%"},
      {"measurement": "Percent of Rats Cataleptic", "setting": "[6]; 6.0 h after initial treatment", "value": 100, "unit": "%"}
    ]}
  ]
}
